Data as given in patent US9340549B2, “Oxazolidinone compounds and derivatives thereof” (priority 2012, dated 2016).
Read-outs that look alike come from different tables or passages of the source.

Assays:
[1] = system: Axin2 in SW480 cells; test: cells; assay type: cell-based; conditions: Homo sapiens, read-out: Axin2 384 IF EC50 IP
Experimental: Using a VPrep, 10 μL of compound/controls was transferred from the compound plate to 60 μL in the cell plate (final 0.5% DMSO, 70 μL). The mixture was incubated for 24 hours at 37° C. at 5% CO2.
The extra media was tapped out. 50 μL of 4% paraformaldehyde (Fisher, AA433689M), 0.1% Triton (Sigma, X100-100 ML) in PBS were added, and the mixture was incubated for 15 minutes at room temperature. […] The extra media was tapped out and to this was added 50 μL of buffer containing Axin2 Antibody (Sigma, SAB1100677-200 µL) at 1:10000 in PBS, 0.1% Tween-20, 1% Normal Goat Serum. The mixture was incubated for 2 hours at room temperature or overnight at 4° C. The cells were then washed twice with PBS, 0.1% Tween-20, and 1% Normal Goat Serum. […] The mixture was then incubated for 30 minutes at room temperature. The cells were then washed twice with PBS, 0.1% Tween-20, and 1% Normal Goat Serum. 50-100 μL PBS was added, and the mixture was covered with a plate seal (Fisher, NC9425162). An ArrayScan (a variation of the compartmental analysis protocol was optimized) was used to scan the plates, and data was analyzed using MEAN_RingSpotAvgIntenCh2). The Axin2 accumulation POC was calculated, and the EC50 was determined using Genedata Screener software to report Axin2 activity.

[2] = system: total β-catenin in SW480 colorectal cells; test: cells; assay type: cell-based; conditions: Homo sapiens
Experimental: Total β-Catenin MSD 96-Well Plate Assay for SW480 Cells
SW480 colorectal cells were seeded at a density of 10,000/well in CellBIND 96-well plates (Corning catalog no. 3300) in 60 μL of normal growth medium (MEM alpha supplemented with 10% heat inactivated FBS, GlutaMAX, pyruvate, and 10 mM HEPES).
A 10-point, 3-fold dilution series for each TNKS inhibitor was constructed in a 96-well “stock” plate. […] The plates were incubated at 37° C. for 40 to 48 hours. The media was removed from the CellBIND plate via plate inversion and gentle shaking and the inverted plate was touched to a paper towel and immediately placed on ice. […] Plates containing cell lysates were sealed and shaken for one hour at 4° C. and then quickly frozen in a −80° C. for approximately 15 to 30 minutes followed by gradually thawing at 4° C. Finally, lysate containing plates were centrifuged @1000×g (2073 rpm) for 10 minutes at 4° C.
The sealed MSD plate was incubated overnight in a cold room with gentle shaking. The MSD plate was then blocked with 150 μL of Blocker “A” per well and incubated overnight at 4° C. with vigorous shaking. The blocked MSD plate was washed 4 times with 150 μL/well TBS-T wash buffer (150 mM NaCl, 50 mM Tris, pH 7.5, 0.02% Tween-20). Cell lysates (75 μL) were transferred to prepared MSD plates and incubated at 4° C. ON with gentle shaking. […] The detection antibody was incubated for 1 hour at room temperature with vigorous shaking after which plates were washed 3 times with 150 μL/well TBS-T wash buffer. Plates were processed for analysis by the addition of 150 μL/well MSD Read 4× Buffer T with surfactant (catalog no. R92TC-2; diluted 1:3 in deionized water) and were read on the SECTOR Imager 6000.

[3] = biological target: 6×HIS-tankyrase 1 (1091-1325) (Homo sapiens (Human), UniProt O95271); test: biochemical; assay type: biochemical; conditions: 400 nM NAD, 60 minutes at room temperature, read-out: TNKS1 IP IC50
[4] = SW480 cells, 40 to 48 hours, top concentration 10 μM, read-out: SW480-Total β-Catenin IC50 IP
[5] = SW480, 24 h, SW480 cells, 24 hours
[6] = SW480, read-out: SW480-Total β-Catenin IC50 IP

Chain of 6×HIS-tankyrase 1 (1091-1325) (O95271 1091-1325): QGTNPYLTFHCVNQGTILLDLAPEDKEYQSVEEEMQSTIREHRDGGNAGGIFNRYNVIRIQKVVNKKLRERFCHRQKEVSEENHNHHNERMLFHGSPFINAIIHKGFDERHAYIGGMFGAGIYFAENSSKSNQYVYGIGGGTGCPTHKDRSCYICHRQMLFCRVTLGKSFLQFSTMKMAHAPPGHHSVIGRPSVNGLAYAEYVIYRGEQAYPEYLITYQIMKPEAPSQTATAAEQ

SMILES: CC1(C)OC(=O)N([C@H]2CC[C@H](n3c(=O)[nH]c4c(F)c(C#N)ccc43)CC2)[C@H]1c1ccccc1 [Example 60, 1-((1S,4r)-4-((S)-5,5-dimethyl-2-oxo-4-phenyloxazolidin-3-yl)cyclohexyl)-4-fluoro-2-oxo-2,3-dihydro-1H-benzo[d]imidazole-5-carbonitrile]
- EC50 ([1]; SW480 cells, 24 hours): 0.0614 µM
- IC50 [2, 4]: 0.0754 µM

SMILES: CC1(C)OC(=O)N(c2ccc(C(=O)Nc3cccc4cccnc34)cc2)[C@@H]1c1ccncc1 [Example 125, (R)-4-(5,5-dimethyl-2-oxo-4-(pyridin-4-yl)oxazolidin-3-yl)-N-(quinolin-8-yl)benzamide]
- EC50 [1, 5]: > 25 µM
- IC50 ([3]; […] enzyme): 7.91 µM

SMILES: CC1(C)OC(=O)N([C@H]2CC[C@@H](c3cnc(N)c(-c4ncccn4)c3)CC2)[C@H]1c1ccccc1 (racemic) [Example 72, 3-((1s,4s)-4-(6-amino-5-(pyrimidin-2-yl)pyridin-3-yl)cyclohexyl)-5,5-dimethyl-4-phenyloxazolidin-2-one]
- EC50 ([1]; SW480, 24 h): 5.81 µM
- IC50 [2, 6]: 6.55 µM

SMILES: CC1(C)OC(=O)N([C@H]2CC[C@H](n3c(=O)[nH]c4c(C#N)cccc43)CC2)[C@H]1c1ccccc1 [Example 51, 1-((1S,4r)-4-((S)-5,5-dimethyl-2-oxo-4-phenyloxazolidin-3-yl)cyclohexyl)-2-oxo-2,3-dihydro-1H-benzo[d]imidazole-4-carbonitrile]
- EC50 ([1]; SW480 cells, 24 hours): 0.454 µM
- IC50 [2, 4]: 0.274 µM

SMILES: CC1(C)OC(=O)N(c2ccn3c(Nc4ccnc5cccnc45)nnc3c2)[C@H]1c1ccccc1 [Example 71, (S)-3-(3-((1,5-naphthyridin-4-yl)amino)-[1,2,4]triazolo[4,3-a]pyridin-7-yl)-5,5-dimethyl-4-phenyloxazolidin-2-one]
- EC50 [1, 5]: > 25 µM
- IC50 ([3]; […] enzyme): 0.503 µM

SMILES: CC1(C)OC(=O)N([C@H]2CC[C@H](n3c(=O)[nH]c4cc(Br)cnc43)CC2)[C@H]1c1ccccc1 [Example 56, (S)-3-((1r,4S)-4-(6-bromo-2-oxo-1H-imidazo[4,5-b]pyridin-3(2H)-yl)cyclohexyl)-5,5-dimethyl-4-phenyloxazolidin-2-one]
- EC50 ([1]; SW480 cells, 24 hours): 0.676 µM
- IC50 [2, 4]: 0.651 µM

SMILES: CC1(C)OC(=O)N([C@H]2CC[C@H](n3c(=O)[nH]c4ncccc43)CC2)[C@H]1c1ccccc1 [Example 30, (S)-5,5-dimethyl-3-((1r,4S)-4-(2-oxo-2,3-dihydro-1H-imidazo[4,5-b]pyridin-1-yl)cyclohexyl)-4-phenyloxazolidin-2-one]
- EC50 [1, 5]: 1.98 µM
- IC50 [2, 4]: 1.12 µM

SMILES: O=C(Nc1cccc2cccnc12)c1ccc(N2C(=O)OC3(CCCCC3)C2c2ccccc2)cc1 (centres unmarked) [Example 46, (R+S) 4-(2-oxo-4-phenyl-1-oxa-3-azaspiro[4.5]decan-3-yl)-N-(quinolin-8-yl)benzamide]
- EC50 ([1]; SW480, 24 h): > 25 µM
- IC50 ([3]; […] enzyme): 5.17 µM

SMILES: COc1ccc([C@H]2N(c3ccc(C(=O)Nc4cccc5cccnc45)cc3)C(=O)OC2(C)C)cc1 [Example 112, (R)-4-(4-(4-methoxyphenyl)-5,5-dimethyl-2-oxooxazolidin-3-yl)-N-(quinolin-8-yl)benzamide]
- EC50 [1, 5]: > 25 µM
- IC50 ([3]; […] enzyme): 2.75 µM

SMILES: CC1(C)OC(=O)N([C@H]2CC[C@H](n3c(=O)[nH]c4cccnc43)CC2)C1c1ccccc1 (some centres unmarked) [Example 36, (R+S) 5,5-dimethyl-3-((1r,4r)-4-(2-oxo-1H-imidazo[4,5-b]pyridin-3(2H)-yl)cyclohexyl)-4-phenyloxazolidin-2-one]
- EC50 [1, 5]: 4.4 µM
- IC50 [2, 4]: 1.24 µM

SMILES: CC1(C)OC(=O)N([C@H]2CC[C@H](n3c(=O)[nH]c4cnccc43)CC2)[C@@H]1c1ccccc1 [Example 24, (R)-5,5-dimethyl-3-((1 r,4R)-4-(2-oxo-2,3-dihydro-1H-imidazo[4,5-c]pyridin-1-yl)cyclohexyl)-4-phenyloxazolidin-2-one]
- EC50 [1, 5]: 4.64 µM
- IC50 [2, 4]: 1.48 µM

SMILES: CC1(C)OC(=O)N([C@H]2CC[C@H](n3c(=O)[nH]c4cc(Cl)ccc43)CC2)[C@H]1c1ccccc1 [Example 29, (S)-3-((1r,4S)-4-(5-chloro-2-oxo-2,3-dihydro-1H-benzo[d]imidazol-1-yl)cyclohexyl)-5,5-dimethyl-4-phenyloxazolidin-2-one]
- EC50 [1, 5]: 2.56 µM
- IC50 [2, 4]: 0.536 µM

SMILES: CC1(C)OC(=O)N([C@H]2CC[C@H](c3cnc(N)c(-c4ncccn4)c3)CC2)[C@H]1c1ccccc1 [Example 74, (S)-3-((1r,4S)-4-(6-amino-5-(pyrimidin-2-yl)pyridin-3-yl)cyclohexyl)-5,5-dimethyl-4-phenyloxazolidin-2-one]
- EC50 ([1]; SW480, 24 h): 0.0519 µM
- IC50 [2, 6]: 0.0908 µM

SMILES: CC1(C)OC(=O)N([C@H]2CC[C@H](n3c(=O)[nH]c4cc(C#N)cnc43)CC2)[C@H]1c1ccccc1 [Example 57, 3-((1S,4r)-4-((S)-5,5-dimethyl-2-oxo-4-phenyloxazolidin-3-yl)cyclohexyl)-2-oxo-2,3-dihydro-1H-imidazo[4,5-b]pyridine-6-carbonitrile]
- EC50 ([1]; SW480 cells, 24 hours): 0.795 µM
- IC50 [2, 4]: 0.172 µM

SMILES: CC1(C)OC(=O)N([C@H]2CC[C@H](n3c(=O)[nH]c4cncnc43)CC2)[C@H]1c1ccccc1 [Example 50, (S)-5,5-dimethyl-3-((1r,4S)-4-(8-oxo-7H-purin-9(8H)-yl)cyclohexyl)-4-phenyloxazolidin-2-one]
- EC50 [1, 5]: 0.391 µM
- IC50 [2, 4]: 0.292 µM

SMILES: CC1(C)OC(=O)N([C@H]2CC[C@H](c3cnc(N)c(-c4ncccn4)c3)CC2)[C@@H]1c1ccccc1 [Example 75, (R)-3-((1r,4R)-4-(6-amino-5-(pyrimidin-2-yl)pyridin-3-yl)cyclohexyl)-5,5-dimethyl-4-phenyloxazolidin-2-one]
- EC50 ([1]; SW480, 24 h): 2.68 µM
- IC50 [2, 6]: 1.58 µM

SMILES: CC1(C)OC(=O)N(c2ccc(C(=O)Nc3cccc4cccnc34)cc2)[C@@H]1c1cccnc1 [Example 10, (R)-4-(5,5-dimethyl-2-oxo-4-(pyridin-3-yl)oxazolidin-3-yl)-N-(quinolin-8-yl)benzamide]
- EC50 [1, 5]: > 25 µM
- IC50 ([3]; […] enzyme): 4.45 µM

SMILES: CC1(C)OC(=O)N([C@H]2CC[C@H](c3cnc(N)c(-c4ncccn4)c3)CC2)[C@H]1c1ccccc1 (racemic) [Example 73, 3-((1r,4r)-4-(6-amino-5-(pyrimidin-2-yl)pyridin-3-yl)cyclohexyl)-5,5-dimethyl-4-phenyloxazolidin-2-one]
- EC50 ([1]; SW480, 24 h): 0.202 µM
- IC50 [2, 6]: 0.0952 µM

SMILES: CC1(C)OC(=O)N(c2ccc(-c3cc(-c4ncco4)c[nH]c3=O)cc2)[C@H]1c1ccccc1 [Example 116, (S)-5,5-dimethyl-3-(4-(5-(oxazol-2-yl)-2-oxo-1,2-dihydropyridin-3-yl)phenyl)-4-phenyloxazolidin-2-one]
- EC50 [1, 5]: > 6.25 µM
- IC50 [2, 4]: 0.906 µM

SMILES: CC1(C)OC(=O)N(c2ccc(C(=O)Nc3cccc4cccnc34)cc2)[C@@H]1c1cccc(F)c1 [Example 109, (R)-4-(4-(3-fluorophenyl)-5,5-dimethyl-2-oxooxazolidin-3-yl)-N-(quinolin-8-yl)benzamide]
- EC50 [1, 5]: > 25 µM
- IC50 ([3]; […] enzyme): 5.53 µM

SMILES: CC1(C)OC(=O)N(c2ccc(C(=O)Nc3cccc4cccnc34)cc2)C1c1cccnc1 (racemic) [Example 9, (+/−)-(R/S)-4-(5,5-dimethyl-2-oxo-4-(pyridin-3-yl)oxazolidin-3-yl)-N-(quinolin-8-yl)benzamide]
- IC50 ([3]; 0.25 nM enzyme): 1.16 µM
- IC50 [2, 4]: 2.48 µM

SMILES: COc1cccc([C@@H]2N(c3ccc(C(=O)Nc4cccc5cccnc45)cc3)C(=O)OC2(C)C)c1 [Example 107, (S)-4-(4-(3-Methoxyphenyl)-5,5-dimethyl-2-oxooxazolidin-3-yl)-N-(quinolin-8-yl)benzamide]
- IC50 ([3]; […] enzyme): 0.0899 µM
- IC50 [2, 4]: 2.36 µM
